Laboratory results from patent publication US20240399032A1, “HYDROGEL FOR PROMOTING GROWTH OF MESENCHYMAL STEM CELLS, AND PREPARATION METHOD AND APPLICATION METHOD THEREOF” (The Fifth People's Hospital of Hainan Province, priority 2023, published 2024).

Legend:
[1] = system: skin scratch model rat; assay: Treatment of wound of skin scratch model DM rat; type: in vivo; settings: applied daily on wound of left hindfoot; for time until wound healed: mecobalamin H1 group (wound without administration healed too), epalrestat M1 group (without administration healed on eighteenth day)
Description: 30 specific pathogen free (SPF) Sprague Dawley (SD) male rats aged 6-8 weeks old (weight 190 g or so) are used to construct as the DM rat model. Specifically, the STZ solution is prepared and used, and the prepared STZ solution is used within 10 minutes. The STZ solution is injected into left lower abdomens of the rats with a single dose of 55 milligrams per kilogram (mg/kg). After a week of the intraperitoneal injection of the STZ solution, the rats are in abrosia but can have water for 12 hours (h), thereafter blood glucose of the rats is detected, and the rats with blood glucose value above 12.6 […] are selected as the DM rat model. The 30 SPF SD male rats are all constructed as the DM rat model, 12 rats died before diabetic foot administration, and 2 rats died during the administration but not appearing effectiveness. Six DM model rats are selected for normal feeding for four weeks. After anesthesia, round skin wounds with each diameter of 5 mm are created on dorsal sides of hindfoots of the DM model rats to generate foot gangrene, as shown in FIG. 2. And then, the DM model rats continue to be fed regularly and the skin wounds of the DM model rats are observed every day. Therapeutic drug of mecobalamin (H1 group) is applied daily on the wound disposed on the left hindfoot of the skin scratch model rat, and then the wound of the model rat is observed. […] Therapeutic drug of epalrestat (M1 group) is applied daily on the wound disposed on the left hindfoot of the skin scratch model rat, and then the wound of the model rat is observed. After 13 days of continuous administration, the wound healed, and at the same time, the wound of the skin scratch model rat without administration healed on the eighteenth day. […] The hydrogels (T1 group, T2 group, T3 group, T4 group) are applied daily on the wounds disposed on the left hindfoots of four skin scratch model rats, and then the wounds of the 4 model rats are observed. […]

[2] = system: Staphylococcus aureus model rat; assay: Treatment of wound (foot gangrene) of Staphylococcus aureus model DM rat; type: in vivo; settings: applied daily on wound of left hindfoot
Description: 30 specific pathogen free (SPF) Sprague Dawley (SD) male rats aged 6-8 weeks old (weight 190 g or so) are used to construct as the DM rat model. Specifically, the STZ solution is prepared and used, and the prepared STZ solution is used within 10 minutes. The STZ solution is injected into left lower abdomens of the rats with a single dose of 55 milligrams per kilogram (mg/kg). After a week of the intraperitoneal injection of the STZ solution, the rats are in abrosia but can have water for 12 hours (h), thereafter blood glucose of the rats is detected, and the rats with blood glucose value above 12.6 […] are selected as the DM rat model. The 30 SPF SD male rats are all constructed as the DM rat model, 12 rats died before diabetic foot administration, and 2 rats died during the administration but not appearing effectiveness. Six DM model rats are selected. At the third week, dorsal sides of hindfoots of the DM model rats are subcutaneously injected 10 μL of suspension containing more than […] Staphylococcus aureus, thereby obtaining a DM animal model with foot infection (also referred to as extremity infection). It can be seen from FIG. 1, on the sixth day, spontaneous foot gangrene occurs, and on the seventh day and eighth day, the foot gangrene is gradually obvious. […]

Structure (SMILES)	time until wound healed [1] [days]	time of administration until wound / foot gangrene healed ([2]; mecobalamin H4 group (untreated wound healed as well), hydrogel T10 group (control healed after 7 days)) [days]	healing of treated wound compared with untreated wound / control group ([2]; mecobalamin H4 group, hydrogel T10 group, same area of foot gangrene)	effect on wound healing ([1]; H1, M1, T1-T4 groups)
CC(/C=C1\SC(=S)N(CC(=O)O)C1=O)=C\c1ccccc1 [epalrestat, Epalrestat]	13	–	–	–
C/C1=C2/[N-][C@H]([C@H](CC(N)=O)[C@@]2(C)CCC(=O)NC[C@@H](C)OP(=O)([O-])O[C@H]2[C@@H](O)[C@@H](n3cnc4cc(C)c(C)cc43)O[C@@H]2CO)[C@]2(C)N=C(/C(C)=C3N=C(/C=C4N=C1[C@@H](CCC(N)=O)C\4(C)C)[C@@H](CCC(N)=O)[C@]\3(C)CC(N)=O)[C@@H](CCC(N)=O)[C@]2(C)CC(N)=O.[CH3-].[Co+3] [mecobalamin, Mecobalamin]	11	5	no significant difference	no significant promoting effect
